Results: PMC5567169 (Emerging Microbes & Infections, 2017)

Key:
FtlA [1] = target: T1, FtlA (Francisella tularensis, UniProt A0AAI8BGE8)
T1 construct: gene FTL_0430

FtlA [2] = target: T1, FtlA; remark: listed apart in the source

T1 sequence (A0AAI8BGE8 1-293): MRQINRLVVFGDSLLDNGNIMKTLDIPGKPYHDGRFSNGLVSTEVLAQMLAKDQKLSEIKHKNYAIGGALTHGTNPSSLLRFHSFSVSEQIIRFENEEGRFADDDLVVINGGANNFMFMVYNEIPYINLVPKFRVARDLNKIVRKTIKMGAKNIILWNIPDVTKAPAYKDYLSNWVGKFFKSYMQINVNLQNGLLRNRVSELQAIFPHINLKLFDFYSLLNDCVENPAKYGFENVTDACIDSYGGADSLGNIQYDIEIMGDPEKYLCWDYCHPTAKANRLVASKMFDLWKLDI

Structure (SMILES)	p-nitrophenyl ester hydrolysis by purified OMVs (FtlA [1])	halo (clear zone) assay on agar plates (FtlA [2])
CCCC(=O)Oc1ccc([N+](=O)[O-])cc1 [p-nitrophenyl butyrate (C4)]	OMVs of the wild-type LVS hydrolyzed p-nitrophenyl butyrate (C4) efficiently	–
CCCC(=O)OCC(COC(=O)CCC)OC(=O)CCC [tributyrin]	–	E. coli strain harboring the FtlA-expressing plasmid (pST2000) showed a clear zone of halo
